{
  "source": "patent US20190381198A1",
  "about": "“RA[…]-GAL[…] FOR PET IMAGING OF SENESCENCE” (Eberhard Karls Universitaet Tuebingen Medizinische Fakultaet, priority 2017, published 2019)",
  "key": {"[1]": {"system": "beta-galactosidase", "conditions": "30° C., 30 minutes, citrate buffer pH 5.5", "procedure": "To assess whether tracer 9 is a substrate of beta-galactosidase, it is incubated at 30° C. for 30 minutes in citrate buffer of pH 5.5 containing commercially available betagalactosidase (Sigma). The reaction is stopped by adding 2 volume equivalents of acetonitrile, followed by 5 minutes of centrifugation. The supernatant is examined directly using radio-HPLC. […] The expected radioactive metabolite is compared with the authentic non-radioactive standard (FIG. 2). […] Compound 11 is galactose."}, "[2]": {"system": "HRas driven liver progenitor cell line", "assay": "in vitro tracer uptake in senescent vs control HRas driven liver progenitor cells (gamma counter)", "format": "cell-based", "conditions": "3.7-7.4 MBq of tracer, 50 minutes", "experimental": "(§1) As the second model, transgenic liver progenitor cell line (Hras) was used for subcutaneous allografts in nude mice. The cell line expresses Hras^G12v and p53shRNA under doxycycline (doxy) conditions. After the removal of doxycycline, the p53 mRNA can be restored and translated to p53 protein. The high amount of p53 triggers senescence. The animals bearing Hras tumors received doxy-water (0.2 mg/ml) for tumor development and 14 days, after removal of doxy-water, the PET/MRT scans are performed with compound 9.\n(§2) HCT116 (FIG. 4a) and Hras cells (FIG. 4b) are treated with […] of tracer and incubated for 50 minutes. The cells are measured in a gamma-counter, with the activity normalized to the number of cells used.\n(§3) The PET-tracer is tested in two different models in vitro. In HCT116 cells senescence is induced by overnight incubation with doxorubicin, followed by 4 days of culture under normal conditions. Senescence in a HRas driven liver progenitor cell line with a doxycycline regulatable p53-specific shRNA. After induction of senescence, both cell lines are incubated with 3.7-7.4 MBq of tracer for 50 minutes. The cells are then washed, counted and measured in a gamma counter. The activity taken up by the cells is analyzed and normalized to a million cells."}, "[3]": {"system": "HCT116 tumors", "assay": "in vivo PET tracer uptake in s.c. HCT116 xenograft tumors, doxorubicin-induced senescence", "set-up": "species or system nude mice", "conditions": "for TMR (tumor-to-muscle ratio) / in vivo tracer uptake: PET; for in vivo tracer uptake: i.v.", "experimental": "A xenograft model of colorectal cancer cell line (HCT116) with therapy induced senescence, doxorubicin is used as a chemotherapeutic. Senescence is induced in HCT116 xenograft tumors by intravenous (i.v.) administration of doxorubicin (10 mg/kg). Through tail vain of the mice, 5 days later dynamic PET/MRT scans (1 h) with compound 9 are performed.\n(§4) In vivo tests are performed in nude mice bearing s.c. HCT116 or HRas driven liver progenitor cells. Mice bearing HCT116 tumors are treated with doxorubicin (10 mg/Kg bodyweight) and imaged 4 days after the onset of senescence. Mice bearing Hras driven tumor are supplied with doxycycline in their drinking water, which has been later removed to induce senescence. After induction of senescence, the tracer is administered i.v. and PET scans are performed. The %ID/cc and tumor-to-muscle ratios are determined through quantitative analysis of the PET data, permitting evaluation of the tracers. In vitro senescent HCT116 cells show an uptake of 11 kBq/1 mio cells, while the uptake in non-senescent control cells is only 4 kBq/1 mio cells.\nThe in vivo tracer uptake in senescent and non-senescent HCT116 tumors (FIG. 5) is 1.7+/−0.7 (n=7) vs 1.1+/−0.4 (n=5) %ID/cc respectively; the respective TMR values are 1.7 and 1.1. […] Both %ID/cc and TMR are higher in senescent vs control tumors. The excised tumors are subjected to ex vivo analyses."}, "[4]": {"assay": "stability of tracer 9 in mouse serum (radio-HPLC)", "format": "in vitro ADME", "conditions": "37° C., 1 hour", "experimental": "The tracer 9 is incubated at 37° C. in mouse serum to assess its stability. After 1 hour, 2 volume equivalents of acetonitrile are added and the mixture is centrifuged for 5 minutes. The supernatant is examined directly using radio-HPLC. Serum stability of tracer 9 after 1 h (FIG. 3a) vs tracer 9 (FIG. 3b) is derivable from FIG. 3."}, "[5]": {"system": "HCT116 cells", "assay": "in vitro tracer uptake in senescent vs control HCT116 cells (gamma counter)", "format": "cell-based", "conditions": "3.7-7.4 MBq of tracer, 50 minutes", "experimental": "as §2, §3"}, "[6]": {"system": "Hras tumors", "assay": "in vivo PET tracer uptake in s.c. HRas driven tumors, senescence by doxycycline removal", "set-up": "species or system nude mice", "conditions": "for TMR (tumor-to-muscle ratio) / tracer uptake: PET; for tracer uptake: i.v.", "experimental": "as §1, §4\nBoth %ID/cc and TMR are higher in senescent vs control tumors. The excised tumors are subjected to ex vivo analyses. […] Senescent tumor slices also show higher X-Gal staining than control sections. The nonsenescent tumor expresses GFP, which can be visualized with optical imaging."}},
  "data": [
    {"smiles": "OC[C@H]1O[C@@H](Oc2cccnc2[18F])[C@H](O)[C@@H](O)[C@H]1O", "note": "[tracer 9]", "values": [
      {"measurement": "conversion by beta-galactosidase (radioactive metabolite by radio-HPLC)", "setting": "[1]", "result": "produces the radioactive metabolite with the same retention time as the non-radioactive 2-fluoropyridinol"},
      {"measurement": "uptake in senescent cells compared to controls", "setting": "[2]; Hras cells, activity normalized to number of cells", "result": "significantly higher uptake compared to the controls"},
      {"measurement": "uptake", "setting": "[2]; non-senescent HRas driven liver progenitor cells", "result": 63, "unit": "kBq/1 mio cells"},
      {"measurement": "uptake", "setting": "[2]; senescent HRas driven liver progenitor cells", "result": 192, "unit": "kBq/1 mio cells"},
      {"measurement": "autoradiography of excised tumors, ex vivo", "setting": "[3]; HCT116 tumor sections, senescent vs control", "result": "higher tracer uptake in the senescent tumor section vs control"},
      {"measurement": "TMR (tumor-to-muscle ratio)", "setting": "[3]; non-senescent HCT116 tumors", "result": 1.1},
      {"measurement": "in vivo tracer uptake", "setting": "[3]; non-senescent HCT116 tumors, n=5", "result": "1.1+/−0.4 %ID/cc"},
      {"measurement": "TMR (tumor-to-muscle ratio)", "setting": "[3]; senescent HCT116 tumors", "result": 1.7},
      {"measurement": "in vivo tracer uptake", "setting": "[3]; senescent HCT116 tumors, n=7", "result": "1.7+/−0.7 %ID/cc"},
      {"measurement": "serum stability", "setting": "[4]", "result": "integrity remains largely intact"},
      {"measurement": "uptake in senescent cells compared to controls", "setting": "[5]; HCT116 cells, activity normalized to number of cells", "result": "significantly higher uptake compared to the controls"},
      {"measurement": "uptake", "setting": "[5]; non-senescent control HCT116 cells", "result": 4, "unit": "kBq/1 mio cells"},
      {"measurement": "uptake", "setting": "[5]; senescent HCT116 cells", "result": 11, "unit": "kBq/1 mio cells"},
      {"measurement": "autoradiography of excised tumors, ex vivo", "setting": "[6]; HRas tumor sections, senescent vs control", "result": "higher tracer uptake in the senescent tumor section vs control"},
      {"measurement": "TMR (tumor-to-muscle ratio)", "setting": "[6]; control HRas tumors", "result": 1.2},
      {"measurement": "tracer uptake", "setting": "[6]; control HRas tumors, n=11", "result": "0.9+/−0.3 %ID/cc"},
      {"measurement": "TMR (tumor-to-muscle ratio)", "setting": "[6]; senescent HRas tumors", "result": 2.1},
      {"measurement": "tracer uptake", "setting": "[6]; senescent HRas tumors, n=16", "result": "1.5+/−0.3 %ID/cc"}
    ]}
  ]
}
